Reference: US20230201030A1, “DISSOLVABLE MEDICAL DEVICE FOR DRUGS DELIVERY” (Alcon Inc., priority 2021, published 2023)

System: pupil
Experiment: Response behavior of phenylephrine (pupil dilation) delivered in the presence/absence of the polymeric film
Type: in vivo
Settings: 0.005% phenylephrine with polymeric film vs 2.5% phenylephrine alone
Description: In the groups with such treatments, a 0.1-0.2 g lens was applied to the center of the cornea. 1 drop of dilating agent (phenylephrine) of predetermined concentration was applied at t(0). Size of pupil was measured using a pre-measured device for reference and followed up using the same scale.

With CNC[C@H](O)c1cccc(O)c1 [phenylephrine, Phenylephrine] the “reduction of drug load at similar efficacy” value was 500 fold.
